In this assay the target is T1, mfT1R2a/mfT1R3 (Oryzias latipes, UniProt Q2MHK2+Q2MHK5).
T1 sequence (Q2MHK5 20-819): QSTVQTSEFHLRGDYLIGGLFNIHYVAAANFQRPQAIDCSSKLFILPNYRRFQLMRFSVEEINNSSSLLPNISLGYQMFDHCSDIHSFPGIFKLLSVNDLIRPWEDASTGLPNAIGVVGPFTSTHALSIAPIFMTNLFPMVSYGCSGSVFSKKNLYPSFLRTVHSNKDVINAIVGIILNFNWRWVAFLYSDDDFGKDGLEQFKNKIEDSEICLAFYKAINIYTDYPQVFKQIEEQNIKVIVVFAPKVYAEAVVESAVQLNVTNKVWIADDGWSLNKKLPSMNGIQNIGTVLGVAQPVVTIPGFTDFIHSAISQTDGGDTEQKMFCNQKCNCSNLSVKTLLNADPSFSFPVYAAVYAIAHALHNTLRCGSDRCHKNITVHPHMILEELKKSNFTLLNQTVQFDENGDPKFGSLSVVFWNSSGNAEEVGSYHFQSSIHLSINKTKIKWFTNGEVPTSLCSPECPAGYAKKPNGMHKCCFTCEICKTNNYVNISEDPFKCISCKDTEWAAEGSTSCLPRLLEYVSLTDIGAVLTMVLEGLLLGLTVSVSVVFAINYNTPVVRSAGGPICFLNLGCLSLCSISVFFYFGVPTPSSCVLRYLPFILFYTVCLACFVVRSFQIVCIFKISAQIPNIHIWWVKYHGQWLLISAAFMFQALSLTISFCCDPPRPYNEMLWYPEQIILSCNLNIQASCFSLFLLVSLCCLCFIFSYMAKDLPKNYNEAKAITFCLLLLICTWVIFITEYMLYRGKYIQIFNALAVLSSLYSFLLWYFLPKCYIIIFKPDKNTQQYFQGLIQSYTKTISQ
T1 sequence (Q2MHK2 20-853): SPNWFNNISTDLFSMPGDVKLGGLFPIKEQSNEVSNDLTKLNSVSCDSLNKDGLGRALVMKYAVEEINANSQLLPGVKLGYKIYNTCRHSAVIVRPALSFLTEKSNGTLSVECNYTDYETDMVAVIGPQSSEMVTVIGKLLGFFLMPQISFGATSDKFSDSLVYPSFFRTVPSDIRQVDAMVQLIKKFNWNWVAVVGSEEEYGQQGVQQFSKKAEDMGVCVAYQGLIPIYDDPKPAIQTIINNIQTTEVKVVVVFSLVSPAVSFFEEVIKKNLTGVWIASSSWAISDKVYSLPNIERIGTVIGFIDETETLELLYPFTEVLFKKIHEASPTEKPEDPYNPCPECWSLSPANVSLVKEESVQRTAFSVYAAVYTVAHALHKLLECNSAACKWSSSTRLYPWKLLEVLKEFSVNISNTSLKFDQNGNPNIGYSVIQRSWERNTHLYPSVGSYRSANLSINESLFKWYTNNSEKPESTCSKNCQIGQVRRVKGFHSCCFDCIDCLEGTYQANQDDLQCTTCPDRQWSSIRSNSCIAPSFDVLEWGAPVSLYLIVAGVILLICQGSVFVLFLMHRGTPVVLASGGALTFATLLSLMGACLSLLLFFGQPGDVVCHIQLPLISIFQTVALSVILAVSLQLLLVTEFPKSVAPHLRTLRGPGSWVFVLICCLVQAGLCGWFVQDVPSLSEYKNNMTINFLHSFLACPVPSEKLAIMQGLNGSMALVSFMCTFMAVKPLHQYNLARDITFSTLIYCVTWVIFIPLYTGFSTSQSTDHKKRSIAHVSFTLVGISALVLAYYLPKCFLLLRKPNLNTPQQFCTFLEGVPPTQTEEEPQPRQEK
The assay can be described thus: Effect of anions, cations and osmotic pressure on cellular responses, cells in 10 mM Cl- buffer, mfT1R2a/mfT1R3. Type of assay: cell-based, medaka fish. Particulars: for response to fixed concentration of L-Gln on coapplication: coapplied with 200 µM L-Gln, final [Cl-]o up to 60 mM. Here is the method: Cells were seeded in 96-well plates coated with ε-poly-L-lysine at approximately 70,000 cells per well. […] Fluorescence changes were monitored at 2 s intervals, as described above. […] Three independent experiments were conducted for each receptor, and representative results are shown as the mean ± SEM (n = 3 replicates). Statistical tests were conducted using KyPlot version 6.0 (KyensLab Inc., Tokyo, Japan). Statistical significance was set at p < 0.05.

In the case of `O=C([O-])[C@H](O)[C@@H](O)[C@H](O)[C@H](O)CO.[Na+]` [Na-gluconate, sodium gluconate], under “cells in 10 mM Cl- buffer”, the “response to fixed concentration of L-Gln on coapplication” value is on record as “did not enhance”.

As for `[Cl-].[Na+]` [NaCl], under “added to 10 mM Cl- buffer with 200 µM L-Gln”, the “additional anion concentration needed to significantly increase the response intensity to L-Gln” value was determined as 30 mM. In addition, the “response to fixed concentration of L-Gln on coapplication” value (cells in 10 mM Cl- buffer) was “enhanced”. Also, the “cellular response to the salt alone” value (without agonist, cells in 10 mM Cl- buffer) is “did not elicit”.

Source of the values: article PMC10539361, “Allosteric modulation of the fish taste receptor type 1 (T1R) family by the extracellular chloride ion” (Scientific Reports, 2023).
